Laboratory results: patent publication US10765648B2, “iNKT cell modulators and methods of using the same” (LUDWIG INSTITUTE FOR CANCER RESEARCH, priority 2011, dated 2020)

Legend:
[1] = tested on: EG7 cells (EL4 cells transfected with full length ovalbumin); assay: EG7 tumor regression in mice immunized with OVA plus lipid; type: in vivo; details: 800 μg OVA plus lipid four days after 1×10^6 EG7 cells
Protocol: Mice were injected with 1×10^6 EG7 cells (EL4 cells transfected with full length ovalbumin).

iNKT cells = assay: In vivo anergy of iNKT cells after lipid preconditioning; set-up: species or system mice; details: for iNKT cell anergy (IFNγ 18 h after OVA and alphaGalCer at day zero): preconditioned with 100 ng lipid at day −28
Protocol: The following experiment was designed to assess the in vivo anergy of iNKT cells as defined by their ability to enhance antigen-specific T- and B-cell responses. Mice were pre-conditioned at day −28 with individual lipids shown in FIG. 12 (100 ng i.v. of either alphaGalCer, IMM47, IMM60, or IMM70). Eighteen hours later, mice were bled to assess iNKT cell activation, as defined by IFN-gamma (determined by ELISA(eBioscience)), results shown in FIG. 13. At day zero (28 days after lipid preconditioning), expression of the iNKT cell activation marker PD1 was measured in splenic iNKT cells (FIG. 14).
Eighteen hours later, iNKT cell activation was analyzed by IFNγ expression by ELISA (FIG. 15). At day 7, T cell responses were analyzed (FIG. 16).

human dendritic cells = assay: Lysis of monocyte-derived dendritic cells cultured with human iNKT cells and lipid, PI staining; type: cell-based; details: 40 hours; for dendritic cell killing: various concentrations
Protocol: Monocyte-derived dendritic cells and human iNKT cells were cultured with various concentrations of each lipid for 40 hours and then PI stained to determine percent dendritic cell lysis (and percent survival).

iNKT cell TCR = molecular target: T1, iNKT cell TCR (Homo sapiens, UniProt P15813); details: cited from earlier work
T1 sequence (P15813 20-301 limits assumed): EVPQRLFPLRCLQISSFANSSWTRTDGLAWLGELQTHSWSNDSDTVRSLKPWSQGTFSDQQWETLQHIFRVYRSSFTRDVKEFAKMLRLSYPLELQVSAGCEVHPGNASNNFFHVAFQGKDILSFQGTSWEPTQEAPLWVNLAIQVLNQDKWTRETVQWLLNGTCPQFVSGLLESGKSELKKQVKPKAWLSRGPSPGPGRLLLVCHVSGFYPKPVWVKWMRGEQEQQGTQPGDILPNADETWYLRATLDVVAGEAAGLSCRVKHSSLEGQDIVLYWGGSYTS

[2] = molecular target: T2, human iNKT cell TCRs for hCD1d loaded with lipid (Homo sapiens, UniProt P15813); assay: SPR of soluble human iNKT TCR binding to hCD1d-lipid complexes
T2 construct: made in house
T2 sequence (P15813 20-301 limits assumed): T1 sequence (P15813 20-301 limits assumed)
From the text: The binding kinetics of these ThrCer and α-GalCer analogue compounds were examined. To this end, bacterially-expressed hCD1d and β-2-microglobulin (β 2 M) molecules were refolded with the thioamide, and carbamate analogues of both α-GalCer and ThrCer by oxidative refolding chromatography, and then biotinylated. The urea analogues of α-GalCer and ThrCer could not be refolded, and therefore, no surface plasmon resonance (SPR) data are available for these molecules. Soluble human iNKT TCR was prepared. SPR experiments were used to measure the affinity and kinetics of human iNKT cell TCRs for hCD1d loaded with α-GalCer, ThrCer, and their thioamide and carbamate analogues (FIGS. 5A-5B). To this end, increasing concentrations of TCR were injected for 5 seconds over the indicated complex immobilized on the BIAcore chip until the specific binding reached its plateau. Kd and Bmax were calculated by fitting the data using non-linear regression binding kinetics model (FIGS. 5A-5B). Kinetic measurements for the koff were calculated using BIAevaluation software kit; kon values were calculated from the experimental koff and Kd.
Protein expression and purification: hCD1d and β2m were refolded with α-GalCer, IMM47, IMM60, IMM70 or IMM80 by oxidative chromatography. In summary, CD1d and β2m were overexpressed in E. coli BL21 using a prokaryotic expression system (Novagen, UK). […]

**Q.** Which results are given for `CCCCCCCCCCCCCCCCCCCCCCCCCC(=O)N[C@H](CO[C@H]1CC[C@H](O)[C@H](O)[C@H]1O)[C@@H](O)[C@@H](O)CCCCCCCCCCCCCC` [IMM60, N-((2R,3R,4S)-3,4-dihydroxy-1-(((1S,2R,3S,4S)-2,3,4-trihydroxycyclohexyl)oxy)octadecan-2-yl)hexacosanamide]?
**A.** regression of established tumour [1]: induced regression of the established tumour; iNKT cell activation (IFN-gamma at 18 h, PD1 at 28 days) (iNKT cells; 100 ng i.v. preconditioning at day −28): stronger iNKT cell activation than IMM47, IMM70, or even alphaGalCer; iNKT cell anergy (IFNγ 18 h after OVA and alphaGalCer at day zero) (iNKT cells): highest iNKT cell anergy; dendritic cell killing (human dendritic cells): highest dendritic cell killing

**Q.** For `CCCCCCCCCCCCCCCCCCCCCCCC(=O)NC(COC1OC(CO)C(O)C(O)C1O)C(O)C(O)CCCCC` (stereo not shown) [OCH9 12], which Kd (iNKT cell TCR; OCH9 on CD1d) is on record?
**A.** 123 ± 9.08 µM

**Q.** And the “k0 (on rate)” value (iNKT cell TCR; OCH9 on CD1d)?
**A.** 23000 ± 1000 M⁻¹ s⁻¹

**Q.** What about the koff (iNKT cell TCR; OCH9 on CD1d) of the same compound?
**A.** 2.67 ± 0.12 s⁻¹

**Q.** What about the “interaction with iNKT cell TCRs” value (iNKT cell TCR; recent study, versus α-GalCer) of the same compound?
**A.** weaker interactions than α-GalCer

**Q.** What does the source list for `CCCCCCCCCCCCCCCCCCCCCCCCCC(=O)N[C@@H](COC[C@H](O)[C@@H](O)CO)[C@H](O)[C@H](O)CCCCCCCCCCCCCC` [ThrCer 2, threitolceramide]?
**A.** iNKT cell anergy (IFNγ 18 h after OVA and alphaGalCer at day zero) (iNKT cells): weakest iNKT cell anergy; dendritic cell killing (human dendritic cells): lowest dendritic cell killing

**Q.** What does the source list for `CCCCCCCCCCCCCCCCCCCCCCCCCC(=O)N[C@H](CO[C@H]1CCC[C@H](O)[C@H](O)[C@H]1O)[C@@H](O)[C@@H](O)CCCCCCCCCCCCCC` [IMM70, N-((2R,3R,4S)-3,4-dihydroxy-1-(((1S,2R,3S,4S)-2,3,4-trihydroxycycloheptyl)oxy)octadecan-2-yl)hexacosanamide]?
**A.** T-cell response (iNKT cells; day 7 after immunization of preconditioned mice): highest T-cell response; iNKT cell anergy (IFNγ 18 h after OVA and alphaGalCer at day zero) (iNKT cells): functional iNKT cells; percentage of DC lysis (human dendritic cells; concentrations lower than 5 ng/ml): very similar to the results obtained with IMM47

**Q.** Which kon ([2]; calculated from experimental koff and Kd) does the source give for `CCCCCCCCCCCCCCCCCCCCCCCCCC(=O)N[C@@H](CO[C@H]1O[C@H](CO)[C@H](O)[C@H](O)[C@H]1O)[C@H](O)[C@H](O)CCCCCCCCCCCCCC` [α-GalCer 1, α-galactosylceramide] here?
**A.** 2580 ± 90 M⁻¹ s⁻¹

**Q.** And the koff ([2]; lipid on CD1d, read-out: experimental koff)?
**A.** 0.565 ± 0.008 s⁻¹

**Q.** What about the “iNKT cell anergy (IFNγ 18 h after OVA and alphaGalCer at day zero)” value (iNKT cells) of the same compound?
**A.** highest iNKT cell anergy
